Data on 40 compounds can be found in ChEMBL document CHEMBL1124014, “Synthesis of (aryloxy)alkylamines. 2. Novel imidazo-fused heterocycles with calcium channel blocking and local anesthetic activity” (J Med Chem, 1988).

Series [1] has as its system Mus musculus. Nature of the series: Concentration causing local anesthetic activity in mice. The format is functional, organism-based.
The species named for a further series is Canis familiaris. Briefly: Percent inhibition of calcium-dependent potassium-polarized smooth muscle contraction in canine trachea. The format is functional, Canis lupus familiaris, Muscle tissue.
For series [2], the target named is T1, Voltage-dependent L-type calcium channel subunit alpha-1C (Oryctolagus cuniculus, UniProt P15381). Briefly: Inhibition of [3H]nitrendipine binding to calcium channels of rabbit cardiac muscle at 10 uM. It is filed as functional, tissue-based, Muscle tissue. The conditions noted are these: probe [3H]nitrendipine.
T1 sequence (P15381 whole entry): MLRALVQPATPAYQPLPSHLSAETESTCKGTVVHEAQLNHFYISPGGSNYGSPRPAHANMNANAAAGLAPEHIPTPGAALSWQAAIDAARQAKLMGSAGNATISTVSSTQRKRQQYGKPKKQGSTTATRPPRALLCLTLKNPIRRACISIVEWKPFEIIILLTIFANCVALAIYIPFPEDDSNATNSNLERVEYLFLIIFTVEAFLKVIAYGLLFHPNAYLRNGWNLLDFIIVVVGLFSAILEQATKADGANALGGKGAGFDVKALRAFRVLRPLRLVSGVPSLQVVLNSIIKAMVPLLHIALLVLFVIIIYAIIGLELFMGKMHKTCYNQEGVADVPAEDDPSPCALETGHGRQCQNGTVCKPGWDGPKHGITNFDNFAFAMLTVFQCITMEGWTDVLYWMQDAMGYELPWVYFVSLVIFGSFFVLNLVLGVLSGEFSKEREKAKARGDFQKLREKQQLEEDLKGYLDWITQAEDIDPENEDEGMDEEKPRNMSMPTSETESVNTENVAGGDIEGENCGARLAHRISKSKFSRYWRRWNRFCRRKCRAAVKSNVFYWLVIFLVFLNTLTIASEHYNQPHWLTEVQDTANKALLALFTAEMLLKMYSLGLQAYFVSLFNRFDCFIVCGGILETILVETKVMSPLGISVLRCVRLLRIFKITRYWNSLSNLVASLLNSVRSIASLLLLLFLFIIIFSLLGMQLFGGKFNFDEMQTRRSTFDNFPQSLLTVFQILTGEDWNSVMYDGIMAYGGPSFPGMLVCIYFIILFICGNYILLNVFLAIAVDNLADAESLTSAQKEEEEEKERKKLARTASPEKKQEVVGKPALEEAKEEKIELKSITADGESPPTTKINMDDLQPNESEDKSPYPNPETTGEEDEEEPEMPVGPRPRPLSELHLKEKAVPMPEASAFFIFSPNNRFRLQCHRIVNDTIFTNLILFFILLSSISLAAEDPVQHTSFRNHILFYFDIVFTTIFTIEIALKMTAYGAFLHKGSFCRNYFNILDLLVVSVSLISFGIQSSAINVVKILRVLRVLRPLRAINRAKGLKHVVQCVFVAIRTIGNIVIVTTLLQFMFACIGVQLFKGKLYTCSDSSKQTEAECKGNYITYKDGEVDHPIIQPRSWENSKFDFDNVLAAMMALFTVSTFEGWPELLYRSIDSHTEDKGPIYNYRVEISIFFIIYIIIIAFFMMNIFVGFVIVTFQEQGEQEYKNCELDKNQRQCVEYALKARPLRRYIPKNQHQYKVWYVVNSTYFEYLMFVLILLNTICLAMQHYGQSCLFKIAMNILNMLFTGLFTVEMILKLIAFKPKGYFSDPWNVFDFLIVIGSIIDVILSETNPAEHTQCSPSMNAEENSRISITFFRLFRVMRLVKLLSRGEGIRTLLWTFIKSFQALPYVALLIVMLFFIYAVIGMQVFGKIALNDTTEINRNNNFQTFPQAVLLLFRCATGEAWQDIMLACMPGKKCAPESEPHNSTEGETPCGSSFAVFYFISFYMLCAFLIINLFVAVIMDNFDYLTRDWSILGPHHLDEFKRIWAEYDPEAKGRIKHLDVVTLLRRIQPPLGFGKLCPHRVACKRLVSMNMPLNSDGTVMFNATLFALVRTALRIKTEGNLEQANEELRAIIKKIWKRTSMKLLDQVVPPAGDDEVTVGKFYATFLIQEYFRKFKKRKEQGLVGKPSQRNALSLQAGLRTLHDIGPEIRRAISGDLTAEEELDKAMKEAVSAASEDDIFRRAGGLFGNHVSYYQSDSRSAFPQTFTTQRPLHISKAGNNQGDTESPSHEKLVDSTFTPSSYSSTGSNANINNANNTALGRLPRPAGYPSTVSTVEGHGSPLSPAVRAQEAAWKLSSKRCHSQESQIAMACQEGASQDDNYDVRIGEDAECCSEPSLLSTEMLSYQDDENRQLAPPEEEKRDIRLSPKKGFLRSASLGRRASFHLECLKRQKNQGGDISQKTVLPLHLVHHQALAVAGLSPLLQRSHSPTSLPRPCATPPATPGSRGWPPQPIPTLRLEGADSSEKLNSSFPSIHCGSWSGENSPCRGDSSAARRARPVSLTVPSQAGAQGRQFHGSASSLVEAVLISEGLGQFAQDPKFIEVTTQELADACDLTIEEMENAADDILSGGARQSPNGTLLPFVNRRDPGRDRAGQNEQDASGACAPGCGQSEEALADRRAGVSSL
Series [3] relates to Mus musculus. Nature of the series: Concentration causing local anesthetic activity in mice; inactive. The format is functional, organism-based.
Series [4] deals with T1, Voltage-dependent L-type calcium channel subunit alpha-1C. Briefly: Inhibition of [3H]nitrendipine binding to calcium channels in Rabbit cardiac muscle. It is filed as tissue-based, Muscle tissue.
Series [5] can be described thus: Inhibition of [3H]nitrendipine binding to calcium channels of rabbit cardiac muscle at 68 uM. The format is functional. As to conditions: Oryctolagus cuniculus, Muscle tissue.

Each structure is given as a SMILES string. Calls of active or inactive are those of the source. No cut-off for these calls is given here. A value given as a limit tells only on which side of the number the result lay.

`CCCCN(CCCC)CCCOc1ccc(-c2nc3c(C)cccn3c2C)cc1` came in with a Concentration in the series with Mus musculus [1] of 0.1%.

In the series with Mus musculus [1], `CCCCN(CCCC)CCCOc1ccc(C(=O)c2cn3ccc(C)cc3n2)cc1` gave a Concentration of 1%.

For the compound `CCCCN(CCCC)CCCOc1ccc(-c2cn3ccccc3n2)cc1.Cl`, the Inhibition in the series listed under Canis familiaris turned out to be 5.4%. The same compound displayed a Concentration in the series on Mus musculus [1] of 0.1%.

As to `CCCCN(CCCC)CCCOc1ccc(-c2cn3ccsc3n2)cc1`, the Concentration in the series with Mus musculus [1] is > 1%.

On to `CCCCN(CCCC)CCCOc1ccc(-c2cn3cccc(C)c3n2)c(C)c1`, for which, in the series with Mus musculus [1], the Concentration was determined as 0.1%.

In the case of `Cc1cccn2cc(-c3ccc(OCCCN4CCOCC4)cc3)nc12`, the Concentration in the series on Mus musculus [1] is > 1%.

The compound `CCCCN(CCCC)CCCOc1ccc(-c2cn3cccc(OCc4ccccc4)c3n2)cc1` came in with a Concentration in the series on Mus musculus [1] of 0.1%. Moreover, the inhibition at 10 µM in series [2] worked out at 45%.

For the compound `Cc1cccn2cc(-c3ccc(OCCCN4CCCCC4)cc3)nc12`, in the series on Mus musculus [1], the Concentration was 1%.

Consider `COC(=O)C1=C(C)NC(C)=C(C(=O)OC)C1c1ccccc1[N+](=O)[O-]` [NIFEDIPINE], for which the Inhibition in the series filed under Canis familiaris is given as 95%. Also, in the series on Mus musculus [1], the Concentration is > 1%.

Turning to `CCCCN(CCCC)CCCOc1ccc(-c2cn3ccc(C)nc3n2)cc1`, the Concentration entry with Mus musculus [3] was “inactive”.

In the series with Mus musculus [1], `CCCCN(CCCC)CCCOc1ccc(-c2cn3cccc(C)c3n2)cc1C` came in with a Concentration of 0.1%.

In the case of `CCCCN(CCCC)CCCOc1ccc(-c2cn3cc(Br)ccc3n2)cc1`, the Concentration in the series on Mus musculus [1] was 1%.

The compound `CCCCN(CCCC)CCCOc1ccc(-c2nc3sccn3c2C)cc1` had a Concentration in the series with Mus musculus [1] of 0.1%.

As to `CC(C)COCC(CN(Cc1ccccc1)c1ccccc1)N1CCCC1` (stereo not drawn) [BEPRIDIL], in series [4], the IC50 is 22 µM. In addition, in the series listed under Canis familiaris, the Inhibition amounted to 81%.

`CCN(CC)CC(=O)Nc1c(C)cccc1C` returned a Concentration with Mus musculus [1] of 1%.

In the series on Mus musculus [1], `CCCCN(CCCC)CCCOc1c(OC)cc(-c2cn3cccc(C)c3n2)cc1OC` came in with a Concentration of 0.1%.

Turning to `CCCCN(CCCC)CCCOc1ccc(-c2cn3nccnc3n2)cc1.Cl.Cl`, the Inhibition in the series filed under Canis familiaris is recorded as 46%. In addition, the Concentration entry in the series with Mus musculus [3] is “inactive”.

Turning to `CCCCN(CCCC)CCCOc1ccc(-c2cn3c(n2)sc2ccccc23)cc1.Cl.Cl`, the Inhibition in the series listed under Canis familiaris was determined as 15%. The same compound registered a Concentration in the series on Mus musculus [1] of 1%.

As for `Cc1cccn2cc(-c3ccc(OCCCN(C)C)cc3)nc12`, the Concentration in the series on Mus musculus [1] turned out to be 1%.

`CCCN(CCC)CCCOc1ccc(-c2cn3cccc(C)c3n2)cc1` came in with a Concentration with Mus musculus [1] of 0.1%.

In the case of `Cc1cccn2cc(-c3ccc(OCCCn4ccnc4)cc3)nc12`, the Concentration with Mus musculus [1] was > 1%.

On to `CCCCN(CCCC)CCCOc1ccc(C(=O)c2cnc3ccc(Br)cn23)cc1`, for which the Concentration in the series on Mus musculus [1] worked out at 0.1%.

In the case of `CCCCN(CCCC)CCCOc1ccc(C(=O)c2cn3cc(Br)ccc3n2)cc1.Cl.Cl`, the Inhibition in the series listed under Canis familiaris came to 50%. The Concentration in the series on Mus musculus [1] is 1%.

In the case of `COc1ccc([C@@H]2Sc3ccccc3N(CCN(C)C)C(=O)[C@@H]2OC(C)=O)cc1` [DILTIAZEM], the Inhibition in the series listed under Canis familiaris came to 96%.

In the series on Mus musculus [1], `CCCCN(CCCC)CCCOc1ccc(-c2cn3cccc(C)c3n2)cc1` displayed a Concentration of 0.01%.

Compound `CCCCN(CCCC)CCCOc1ccc(-c2cn3c(C)cccc3n2)cc1` yielded a Concentration in the series on Mus musculus [1] of 0.1%.

For `COc1ccc(CCN(C)CCCC(C#N)(c2ccc(OC)c(OC)c2)C(C)C)cc1OC` (stereo not drawn), in the series filed under Canis familiaris, the Inhibition turned out to be 93%. The same compound registered a Concentration with Mus musculus [1] of 1%.

As to `CCCCN(CCCC)CCCOc1ccc(-c2cn3cccnc3n2)cc1`, in the series with Mus musculus [1], the Concentration is > 1%. In series [5], the inhibition at 68 µM came to 43%.

As for `CCCCN(CCCC)CCCOc1ccc(-c2cn3cccc([N+](=O)[O-])c3n2)cc1`, the Concentration in the series on Mus musculus [1] was > 1%.

Take `CCCCN(CCCC)CCCOc1ccc(-c2cn3ccc(C)cc3n2)cc1`: in the series on Mus musculus [1], the Concentration worked out at 0.1%.

`CCCCN(CCCC)CCCOc1ccc(-c2cn3cccc(O)c3n2)cc1` gave a Concentration in the series on Mus musculus [1] of 0.1%.

As to `CCCCN(CCCC)CCCOc1ccc(C(=O)c2cnc3ncccn23)cc1.Cl.Cl`, in the series listed under Canis familiaris, the Inhibition is 44%. Also, the Concentration result in the series on Mus musculus [3] was “inactive”.

Compound `CCCCN(CCCC)CCCOc1ccc(-c2cn3cc(C)ccc3n2)cc1` yielded a Concentration in the series on Mus musculus [1] of 0.1%.

Regarding `CCCCCN(CCCCC)CCCOc1ccc(-c2cn3cccc(C)c3n2)cc1`, in the series with Mus musculus [1], the Concentration is 0.1%.

In the case of `CCCCN(CCCC)CCCOc1ccc(C(=O)c2cnc3nc(C)ccn23)cc1`, the IC50 in series [4] came to 6.1 µM. Also, the Concentration result in the series with Mus musculus [3] was “inactive”.

For `CCCCN(CCCC)CCCOc1ccc(C(=O)c2cnc3c(C)cccn23)cc1`, the IC50 in series [4] was found to be 0.5 µM. This compound returned a Concentration with Mus musculus [1] of 0.1%.

`CCCCN(CCCC)CCCCOc1ccc(-c2cn3cccc(C)c3n2)cc1` came in with a Concentration in the series on Mus musculus [1] of 1%.

In the case of `CCCCN(CCCC)CCCOc1ccc(-c2cn3nc(C)sc3n2)cc1`, in the series with Mus musculus [3], the Concentration entry was “inactive”.

As for `CCCCN(CCCC)CCCOc1ccc(C(=O)c2cn3cccc(C)c3n2)cc1`, the IC50 in series [4] is 6 µM. In the series with Mus musculus [1], this compound gave a Concentration of 1%.

`CCCCN(CCCC)CCCOc1ccc(-c2cn3cccc(C)c3n2)cc1OC`: in the series with Mus musculus [1], the Concentration is 0.01%.
